Assay results: ChEMBL document CHEMBL1134726, “SAR studies of novel 5-substituted 2-arylindoles as nonpeptidyl GnRH receptor antagonists” (Bioorg Med Chem Lett, 2001)

Target: T1, Gonadotropin-releasing hormone receptor (Rattus norvegicus, UniProt P30969)
T1 sequence (P30969 whole entry): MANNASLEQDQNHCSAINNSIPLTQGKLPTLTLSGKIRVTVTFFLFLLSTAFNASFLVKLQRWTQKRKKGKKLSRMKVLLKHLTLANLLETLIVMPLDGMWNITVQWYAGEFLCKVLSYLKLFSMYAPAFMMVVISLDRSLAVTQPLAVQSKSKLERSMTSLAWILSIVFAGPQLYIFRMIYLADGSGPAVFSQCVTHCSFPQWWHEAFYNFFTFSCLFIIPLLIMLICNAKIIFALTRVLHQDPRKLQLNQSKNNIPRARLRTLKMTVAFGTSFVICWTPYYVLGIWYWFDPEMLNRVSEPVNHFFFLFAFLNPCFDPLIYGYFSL
Assay: Binding affinity to rat Gonadotropin-releasing hormone receptor.

Row | Structure (SMILES) | IC50 [nM]
1 | Cc1cc(C)cc(-c2[nH]c3ccc(OC(=O)N4CCN(C)CC4)cc3c2CCNCCCCc2ccc(O)cc2)c1 | 25
2 | Cc1cc(C)cc(-c2[nH]c3ccc(OC(=O)N4CCN(S(C)(=O)=O)CC4)cc3c2CCNCCCCc2ccc(O)cc2)c1 | 6
3 | CCCC(=O)N1CCN(C(=O)Oc2ccc3[nH]c(-c4cc(C)cc(C)c4)c(CCNCCCCc4ccc(O)cc4)c3c2)CC1 | 30
4 | CCOC(=O)N1CCN(C(=O)Oc2ccc3[nH]c(-c4cc(C)cc(C)c4)c(CCNCCCCc4ccc(O)cc4)c3c2)CC1 | 32
5 | CC(=O)N1CCN(C(=O)Oc2ccc3[nH]c(-c4cc(C)cc(C)c4)c(CCNCCCCc4ccc(O)cc4)c3c2)CC1 | 30
6 | Cc1cc(C)cc(-c2[nH]c3ccc(OCc4ccccc4)cc3c2CCNCCCCc2ccc(O)cc2)c1 | 100
7 | Cc1cc(C)cc(-c2[nH]c3ccc(OC(=O)N4CCN(S(=O)(=O)C(C)C)CC4)cc3c2CCNCCCCc2ccc(O)cc2)c1 | 7
8 | Cc1cc(C)cc(-c2[nH]c3ccc(OC(=O)N4CCCCC4)cc3c2CCNCCCCc2ccc(O)cc2)c1 | 32
9 | CNC(=O)Oc1ccc2[nH]c(-c3cc(C)cc(C)c3)c(CCNCCCCc3ccc(O)cc3)c2c1 | 30
10 | CCS(=O)(=O)N1CCN(C(=O)Oc2ccc3[nH]c(-c4cc(C)cc(C)c4)c(CCNCCCCc4ccc(O)cc4)c3c2)CC1 | 4
11 | CCCS(=O)(=O)N1CCN(C(=O)Oc2ccc3[nH]c(-c4cc(C)cc(C)c4)c(CCNCCCCc4ccc(O)cc4)c3c2)CC1 | 12
12 | Cc1cc(C)cc(-c2[nH]c3ccc(OC(=O)N4CCOCC4)cc3c2CCNCCCCc2ccc(O)cc2)c1 | 20
13 | COc1ccc2[nH]c(-c3cc(C)cc(C)c3)c(CCNCCCCc3ccc(O)cc3)c2c1 | 40
14 | Cc1cc(C)cc(-c2[nH]c3ccc(OC(=O)N4CCN(CC(N)=O)CC4)cc3c2CCNCCCCc2ccc(O)cc2)c1 | 27
15 | CCNC(=O)Oc1ccc2[nH]c(-c3cc(C)cc(C)c3)c(CCNCCCCc3ccc(O)cc3)c2c1 | 16
16 | Cc1cc(C)cc(-c2[nH]c3ccc(OC(=O)N4CCNCC4)cc3c2CCNCCCCc2ccc(O)cc2)c1 | 100
17 | Cc1cc(C)cc(-c2[nH]c3ccc(OC(=O)N(C)C)cc3c2CCNCCCCc2ccc(O)cc2)c1 | 30
18 | CCCNC(=O)Oc1ccc2[nH]c(-c3cc(C)cc(C)c3)c(CCNCCCCc3ccc(O)cc3)c2c1 | 30
19 | CCC(=O)N1CCN(C(=O)Oc2ccc3[nH]c(-c4cc(C)cc(C)c4)c(CCNCCCCc4ccc(O)cc4)c3c2)CC1 | 15
